Data: ChEMBL document CHEMBL1641507, “The effect of structural differences in the reducing terminus of sugars on the binding affinity of carbohydrates and proteins analyzed using photoaffinity labeling” (Bioorg Med Chem, 2011)
Calls of active or inactive are those of the source. No cut-off for these calls is given here.

What was measured:
[1] = target: T1, Lectin (Erythrina crista-galli) (UniProt P83410); test: Binding affinity to Erythrina cristagalli lectin assessed as compound-protein complex formation incubated for 30 mins followed by UV irradiation by SDS-PAGE based photoaffinity labeling
T1 sequence (whole entry): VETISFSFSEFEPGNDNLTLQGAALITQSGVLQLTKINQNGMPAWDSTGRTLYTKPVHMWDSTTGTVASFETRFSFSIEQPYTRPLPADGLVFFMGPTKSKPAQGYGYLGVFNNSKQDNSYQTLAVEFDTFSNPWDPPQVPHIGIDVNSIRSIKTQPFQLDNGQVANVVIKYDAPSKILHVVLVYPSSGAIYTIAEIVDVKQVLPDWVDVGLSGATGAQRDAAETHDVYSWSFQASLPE

Lectin (Glycine max) [2] = target: Lectin (Glycine max) (UniProt P05046); test: Binding affinity to soybean lectin assessed as compound-protein complex formation incubated for 30 mins followed by UV irradiation by SDS-PAGE based photoaffinity labeling in presence of lactose
Chain of Lectin (Glycine max) (P05046 whole entry): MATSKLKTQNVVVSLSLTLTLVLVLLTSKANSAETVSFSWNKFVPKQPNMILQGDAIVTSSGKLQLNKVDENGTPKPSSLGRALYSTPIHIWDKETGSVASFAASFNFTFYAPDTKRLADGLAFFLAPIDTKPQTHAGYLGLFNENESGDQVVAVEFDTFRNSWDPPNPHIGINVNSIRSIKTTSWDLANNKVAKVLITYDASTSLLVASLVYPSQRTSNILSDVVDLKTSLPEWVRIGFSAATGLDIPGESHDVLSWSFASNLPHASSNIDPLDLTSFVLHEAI

Lectin (Glycine max) [3] = target: Lectin (Glycine max) (UniProt P05046); test: Binding affinity to soybean lectin assessed as compound-protein complex formation incubated for 30 mins followed by UV irradiation by SDS-PAGE based photoaffinity labeling
[4] = target: T1, Lectin (Erythrina crista-galli); test: Binding affinity to Erythrina cristagalli lectin assessed as compound-protein complex formation incubated for 30 mins followed by UV irradiation by SDS-PAGE based photoaffinity labeling in presence of lactose

Activity [1]: Active
Activity (Lectin (Glycine max) [2]): Active
Activity (Lectin (Glycine max) [3]): Active
Activity [4]: Active
SMILES: O=C(CCCC[C@@H]1SC[C@H]2NC(=O)N[C@@H]12)NCCOCCOCCOc1cc(C2(C(F)(F)F)N=N2)ccc1CO/N=C/[C@@H](O)[C@@H](O)[C@H](O[C@@H]1O[C@H](CO)[C@H](O)[C@H](O)[C@H]1O)[C@H](O)CO
